Data as given in US8912220B2 (priority 2009, dated 2014).
pEC50: −log10 of the molar value.

Target: human 5-HT2C(VSV) (Homo sapiens, UniProt P28335, I156V/I160V/N158S)
Experiment: cell-based

human 5-HT2C(VSV), sequence (P28335 33-458 I156V/N158S/I160V limits assumed): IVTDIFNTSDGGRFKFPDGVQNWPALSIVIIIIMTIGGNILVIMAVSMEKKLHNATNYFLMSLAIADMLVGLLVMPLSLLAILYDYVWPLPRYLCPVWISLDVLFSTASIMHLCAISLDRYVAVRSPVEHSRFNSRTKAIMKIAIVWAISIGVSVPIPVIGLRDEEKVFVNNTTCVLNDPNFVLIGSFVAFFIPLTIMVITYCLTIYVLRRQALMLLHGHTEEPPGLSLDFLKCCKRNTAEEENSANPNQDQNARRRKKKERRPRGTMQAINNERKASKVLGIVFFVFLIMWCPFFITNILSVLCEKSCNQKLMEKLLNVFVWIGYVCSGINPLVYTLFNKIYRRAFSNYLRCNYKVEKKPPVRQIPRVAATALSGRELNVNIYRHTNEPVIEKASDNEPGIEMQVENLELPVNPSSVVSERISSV

| Structure (SMILES) | pEC50 |
| --- | --- |
| COc1c(F)ccc2c1c(CCN1CCCC1C(N)=O)cn2C (stereo not drawn) [17-9, 1-(2-(5-fluoro-4-methoxy-1-methyl-1H-indol-3-yl)ethyl)pyrrolidine-2-carboxamide] | 5.00 to 6.30 |
| CCCn1cc(CCNC)c2c(OCc3ccc(C)cc3)c(F)ccc21 [33-16, 2-(5-fluoro-4-(4-methylbenzyloxy)-1-propyl-1H-indol-3-yl)-N-methylethanamine] | 6.30 to 9.00 |
| CNCCc1cn(C)c2ccc(F)c(OCCc3ccc(Cl)cc3)c12 [33-29, 2-(4-(4-chlorophenethoxy)-5-fluoro-1-methyl-1H-indol-3-yl)-N-methylethanamine] | 6.30 to 9.00 |
| CNCCc1cn(C)c2ccc(F)c(OCc3ccccc3Cl)c12 [33-23, 2-(4-(2-chlorobenzyloxy)-5-fluoro-1-methyl-1H-indol-3-yl)-N-methylethanamine] | 6.30 to 9.00 |
| CNCCc1cn(C)c2ccc(F)c(OCc3cccc4cccnc34)c12 [33-13, 2-(5-fluoro-1-methyl-4-(quinolin-8-ylmethoxy)-1H-indol-3-yl)-N-methylethanamine] | 6.30 to 9.00 |
| CCn1cc(CCNCCc2cccc(C(F)(F)F)c2)c2c(OCc3ccccc3)cc(F)cc21 [31-13, 2-(4-(benzyloxy)-1-ethyl-6-fluoro-1H-indol-3-yl)-N-(3-(trifluoromethyl)phenethyl)ethanamine] | 6.30 to 9.00 |
| CCOc1c(F)ccc2c1c(CCNCc1cccc(C(F)(F)F)c1)cn2C [30-22, 2-(4-ethoxy-5-fluoro-1-methyl-1H-indol-3-yl)-N-(3-(trifluoromethyl)benzyl)ethanamine] | 6.30 to 9.00 |
| CCn1cc(CCNCc2ccccc2)c2c(OC)cc(F)cc21 [39-4, N-benzyl-2-(1-ethyl-6-fluoro-4-methoxy-1H-indol-3-yl)ethanamine] | 6.30 to 9.00 |
| CCn1cc(CCN(C)C)c2c(Oc3ccccc3N)ccc(F)c21 [2-3, 2-(3-(2-(dimethylamino)ethyl)-1-ethyl-7-fluoro-1H-indol-4-yloxy)aniline] | 6.30 to 9.00 |
| CNCCc1cn(C)c2cc(F)cc(OCc3ccccc3Cl)c12 [33-44, 2-(4-(2-chlorobenzyloxy)-6-fluoro-1-methyl-1H-indol-3-yl)-N-methylethanamine] | 6.30 to 9.00 |
| CNCCc1cn(C)c2ccc(F)c(OCCc3ccccc3)c12 [33-26, 2-(5-fluoro-1-methyl-4-phenethoxy-1H-indol-3-yl)-N-methylethanamine] | 6.30 to 9.00 |
| CCCn1cc(CCN)c2c3c(ccc21)OCCO3 [40-6, 2-(7-propyl-3,7-dihydro-2H-[1,4]dioxino[2,3-e]indol-9-yl)ethanamine] | > 5.00 |
| COC(=O)/C=C/c1ccc(OC)c2c(CCN(C)C)cn(C)c12 [25-2, (E)-methyl 3-(3-(2-(dimethylamino)ethyl)-4-methoxy-1-methyl-1H-indol-7-yl)acrylate] | 6.30 to 9.00 |
| CCn1cc(CCN2CCNCC2)c2c(O)cc(F)cc21 [11-15, 1-ethyl-6-fluoro-3-(2-(piperazin-1-yl)ethyl)-1H-indol-4-ol] | 5.00 to 6.30 |
| COc1ccc(-c2ccoc2)c2c1c(CCN(C)C)cn2C [6-9, 2-(7-(furan-3-yl)-4-methoxy-1-methyl-1H-indol-3-yl)-N,N-dimethylethanamine] | 5.00 to 6.30 |
| CCn1cc(CCN2Cc3ccccc3C2)c2c(O)cc(F)cc21 [31-4, 1-ethyl-6-fluoro-3-(2-(isoindolin-2-yl)ethyl)-1H-indol-4-ol] | 5.00 to 6.30 |
| CCOc1c(F)ccc2c1c(CCNCc1cccs1)cn2C [30-28, 2-(4-ethoxy-5-fluoro-1-methyl-1H-indol-3-yl)-N-(thiophen-2-ylmethyl)ethanamine] | 6.30 to 9.00 |
| CCn1cc(CCN(C)C)c2c(OCc3cc(F)ccc3C)cc(F)cc21 [1-17b, 2-(1-ethyl-6-fluoro-4-(5-fluoro-2-methylbenzyloxy)-1H-indol-3-yl)-N,N-dimethylethanamine] | 6.30 to 9.00 |
| CN(C)CCc1cn(C)c2ccc(F)c(OCCc3ccccc3)c12 [18-2, 2-(5-fluoro-1-methyl-4-phenethoxy-1H-indol-3-yl)-N,N-dimethylethanamine] | 6.30 to 9.00 |
| CCn1cc(CCN2CCC(F)(F)C2)c2c(O)cc(F)cc21 [11-14, 3-(2-(3,3-difluoropyrrolidin-1-yl)ethyl)-1-ethyl-6-fluoro-1H-indol-4-ol] | 5.00 to 6.30 |
| CCn1cc(CCN(C)C)c2c(OCc3ccncc3)cc(F)cc21 [1-18b, 2-(1-ethyl-6-fluoro-4-(pyridin-4-ylmethoxy)-1H-indol-3-yl)-N,N-dimethylethanamine] | 5.00 to 6.30 |
| COc1c(F)ccc2c1c(CCNC(C)c1ccccc1)cn2C (stereo not drawn) [34-10, 2-(5-fluoro-4-methoxy-1-methyl-1H-indol-3-yl)-N-(1-phenylethyl)ethanamine] | 6.30 to 9.00 |
| COc1cc(F)cc2c1c(CCN(C)C)cn2S(=O)(=O)c1ccccc1 [15-2, 2-(6-fluoro-4-methoxy-1-(phenylsulfonyl)-1H-indol-3-yl)-N,N-dimethylethan amine] | 5.00 to 6.30 |
| COc1c(F)ccc2c1c(CCNC(CO)c1ccccc1)cn2C (stereo not drawn) [34-9, 2-(2-(5-fluoro-4-methoxy-1-methyl-1H-indol-3-yl)ethylamino)-2-phenylethanol] | 6.30 to 9.00 |

| Structure (SMILES) | pEC50 |
| --- | --- |
| COc1c(F)ccc2c1c(CCN1CCc3ccc(Cl)cc3C(C)C1)cn2C (stereo not drawn) [17-8, 8-chloro-3-(2-(5-fluoro-4-methoxy-1-methyl-1H-indol-3-yl)ethyl)-1-methyl-2,3,4,5-tetrahydro-1H-benzo[d]azepine] | 6.30 to 9.00 |
| COc1ccc(-c2cccnc2)c2c1c(CCN(C)C)cn2C [6-14, 2-(4-methoxy-1-methyl-7-(pyridin-3-yl)-1H-indol-3-yl)-N,N-dimethylethanamine] | 6.30 to 9.00 |
| CNCCc1cn(C)c2ccc(F)c(OCc3cccc4ccccc34)c12 [33-36, 2-(5-fluoro-1-methyl-4-(naphthalen-1-ylmethoxy)-1H-indol-3-yl)-N-methylethanamine] | 6.30 to 9.00 |
| COc1ccc(-c2cccs2)c2c1c(CCN(C)C)cn2C [6-7, 2-(4-methoxy-1-methyl-7-(thiophen-2-yl)-1H-indol-3-yl)-N,N-dimethylethanamine] | 5.00 to 6.30 |
| CNCCc1cn(C)c2ccc(F)c(OCCc3ccc(OC)cc3)c12 [33-25, 2-(5-fluoro-4-(4-methoxyphenethoxy)-1-methyl-1H-indol-3-yl)-N-methylethanamine] | 6.30 to 9.00 |
| COc1c(F)ccc2c1c(CCN[C@H]1CCCc3ccccc31)cn2C [17-16, (S)-N-(2-(5-fluoro-4-methoxy-1-methyl-1H-indol-3-yl)ethyl)-1,2,3,4-tetrahydronaphthalen-1-amine] | 6.30 to 9.00 |
| CCOc1c(F)ccc2c1c(CCNC1CCc3ccccc31)cn2C (stereo not drawn) [30-19, N-(2-(4-ethoxy-5-fluoro-1-methyl-1H-indol-3-yl)ethyl)-2,3-dihydro-1H-inden-1-amine] | 6.30 to 9.00 |
| COc1ccc(Nc2ccccc2)c2c1c(CCN(C)C)cn2C [6-12, 3-(2-dimethylaminoethyl)-4-methoxy-1-methyl-N-phenyl-1H-indol-7-amine] | 6.30 to 9.00 |
| CN(C)CCc1cn(Cc2ccc3ccccc3c2)c2c(F)ccc(OCc3ccccc3)c12 [7-6, 2-(4-(benzyloxy)-7-fluoro-1-(naphthalen-2-ylmethyl)-1H-indol-3-yl)-N,N-dimethylethanamine] | 6.30 to 9.00 |
| CCOc1c(F)ccc2c1c(CCNCc1ccc3c(c1)OCO3)cn2C [30-18, N-(benzo[d][1,3]dioxol-5-ylmethyl)-2-(4-ethoxy-5-fluoro-1-methyl-1H-indol-3-yl)ethanamine] | 6.30 to 9.00 |
| COc1ccc(F)c2c1c(CCN1CCCC1)cn2C [11-10, 7-fluoro-4-methoxy-1-methyl-3-(2-(pyrrolidin-1-yl)ethyl)-1H-indole] | 6.30 to 9.00 |
| COc1c(F)ccc2c1c(CCN1CCN(c3ccccc3)CC1)cn2C [17-14, 5-fluoro-4-methoxy-1-methyl-3-(2-(4-phenylpiperazin-1-yl)ethyl)-1H-indole] | 5.00 to 6.30 |
| CCn1cc(CCNCc2cccc(Cl)c2)c2c(O)cc(F)cc21 [31-11, 3-(2-(3-chlorobenzylamino)ethyl)-1-ethyl-6-fluoro-1H-indol-4-ol] | 6.30 to 9.00 |
| CCn1cc(CCN(C)C)c2c(OCc3cccc(C(F)(F)F)c3)cc(F)cc21 [1-16b, 2-(1-ethyl-6-fluoro-4-(3-(trifluoromethyl)benzyloxy)-1H-indol-3-yl)-N,N-dimethylethanamine] | 5.00 to 6.30 |
| COc1c(F)ccc2c1c(CCN1CCNCC1)cn2C [17-10, 5-fluoro-4-methoxy-1-methyl-3-(2-(piperazin-1-yl)ethyl)-1H-indole] | 5.00 to 6.30 |
| CCn1cc(C2=CCNCC2)c2c(OCc3ccccc3)cc(F)cc21 [37-2, 4-(benzyloxy)-1-ethyl-6-fluoro-3-(1,2,3,6-tetrahydropyridin-4-yl)-1H-indole] | 5.00 to 6.30 |
| COc1c(F)ccc2c1c(CCN[C@@H]1CCCc3ccccc31)cn2C [17-17, (R)-N-(2-(5-fluoro-4-methoxy-1-methyl-1H-indol-3-yl)ethyl)-1,2,3,4-tetrahydronaphthalen-1-amine] | 6.30 to 9.00 |
| CCn1cc(CCNCc2ccccc2Cl)c2c(OC)ccc(F)c21 [20-10, N-(2-chlorobenzyl)-2-(1-ethyl-7-fluoro-4-methoxy-1H-indol-3-yl)ethanamine] | 6.30 to 9.00 |
| COc1c(F)ccc2c1c(CCNCCCCc1ccccc1)cn2C [17-13, N-(2-(5-fluoro-4-methoxy-1-methyl-1H-indol-3-yl)ethyl)-4-phenylbutan-1-amine] | 6.30 to 9.00 |
| CCn1cc(C2CCCN(C)C2)c2c(O)cc(F)cc21 (stereo not drawn) [38-6, 1-ethyl-6-fluoro-3-(1-methylpiperidin-3-yl)-1H-indol-4-ol] | 5.00 to 6.30 |
| CCOc1c(F)ccc2c1c(CCN1CCCC1)cn2C [30-29, 4-ethoxy-5-fluoro-1-methyl-3-(2-(pyrrolidin-1-yl)ethyl)-1H-indole] | 6.30 to 9.00 |
| COc1c(F)ccc2c1c(CCNc1cccc(N3CCN(C)CC3)c1)cn2C [17-18, N-(2-(5-fluoro-4-methoxy-1-methyl-1H-indol-3-yl)ethyl)-3-(4-methylpiperazin-1-yl)aniline] | 6.30 to 9.00 |
| CCn1cc(CCN(C)CCc2cn(CC)c3cc(F)cc(OC)c23)c2c(OC)cc(F)cc21 [39-5, 2-(1-ethyl-6-fluoro-4-methoxy-1H-indol-3-yl)-N-(2-(1-ethyl-6-fluoro-4-methoxy-1H-indol-3-yl)ethyl)-N-methylethanamine] | 6.30 to 9.00 |
| CCn1cc(C2CCCNC2)c2c(O)cc(F)cc21 (stereo not drawn) [38-4, 1-ethyl-6-fluoro-3-(piperidin-3-yl)-1H-indol-4-ol] | 6.30 to 9.00 |
